For five compounds, Activity and IC50 results are on record in ChEMBL document CHEMBL4266048, “Halogenated Meroditerpenoids from a South Pacific Collection of the Red Alga Callophycus serratus” (J Nat Prod, 2018).

Each structure is given as a SMILES string. Activity calls are given as the source filed them. No cut-off for these calls is given here.

The experiment relates to HL-60. The experiment in a line: Cytotoxicity against human HL60 cells after 48 hrs by MTT assay. The conditions noted are these: for IC50: HL-60, 48 h. The class given is functional, cell-based. On the technique in general: Tetrazolium assays rely on reduction of a dye to a coloured formazan, in cell work by metabolically active cells.

Broadly, the IC50 is the point on the concentration scale where inhibition reaches its midpoint. Lower therefore signals greater potency.

`C=C1CC=CC(C)(C)[C@H]1CC[C@@]1(C)[C@H](Cc2cc(Br)ccc2O)/C(=C/I)CC[C@@H]1Br`: the outcome was inactive.

Compound `CC1=C2Cc3cc(ccc3O)C(=O)O[C@H](C(C)(C)Br)CC[C@](C)(O)[C@H](Br)CC[C@]2(C)[C@@H](Br)CC1` came in with an IC50 of 6.2 µM.

`CC1=C2Cc3cc(ccc3O)C(=O)OC(C)(C)[C@H](Br)CC[C@]3(C)O[C@H]3C[C@]2(C)[C@@H](Br)CC1` [BROMOPHYCOLIDE T] returned a half-maximal inhibitory concentration (IC50) of 6 µM.

`CC[C@H](/C=C(/C)[C@@H]1C[C@@H](OC)C[C@H](O)C(C)(C)[C@@]2(O)O[C@@H](C[C@@H](OC)[C@H](O)C(=O)O1)C[C@@H](OC)[C@H]2O)CO`: the IC50 was found to be 10 µM.

Regarding `C=C1CC[C@@H](Br)C(C)(C)[C@H]1CC[C@@]1(C)[C@H](Cc2cc(Br)ccc2O)/C(=C/I)CC[C@@H]1Br`, the IC50 came to 5.1 µM.
